Experimental data from publication PMC6934184, “Selective DNA-PKcs inhibition extends the therapeutic index of localized radiotherapy and chemotherapy” (The Journal of Clinical Investigation, 2019).

Target: T1, ALK R1275Q (Homo sapiens, UniProt Q9UM73, R1275Q)
T1 construct: purchased Thermo Fisher Scientific (Life Technologies) SelectScreen
Assay: SelectScreen LanthaScreen
Assay type: binding
Conditions: read-out: % displacement
Method in brief: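 SelectScreen broad panel; activity (Z'LYTE, Adapta) plus binding formats. ATP: Km app for CSF1R Z'LYTE; 10 for CAMK1 Adapta. Readout = % per kinase.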

T1 sequence (Q9UM73 19-1620 R1275Q): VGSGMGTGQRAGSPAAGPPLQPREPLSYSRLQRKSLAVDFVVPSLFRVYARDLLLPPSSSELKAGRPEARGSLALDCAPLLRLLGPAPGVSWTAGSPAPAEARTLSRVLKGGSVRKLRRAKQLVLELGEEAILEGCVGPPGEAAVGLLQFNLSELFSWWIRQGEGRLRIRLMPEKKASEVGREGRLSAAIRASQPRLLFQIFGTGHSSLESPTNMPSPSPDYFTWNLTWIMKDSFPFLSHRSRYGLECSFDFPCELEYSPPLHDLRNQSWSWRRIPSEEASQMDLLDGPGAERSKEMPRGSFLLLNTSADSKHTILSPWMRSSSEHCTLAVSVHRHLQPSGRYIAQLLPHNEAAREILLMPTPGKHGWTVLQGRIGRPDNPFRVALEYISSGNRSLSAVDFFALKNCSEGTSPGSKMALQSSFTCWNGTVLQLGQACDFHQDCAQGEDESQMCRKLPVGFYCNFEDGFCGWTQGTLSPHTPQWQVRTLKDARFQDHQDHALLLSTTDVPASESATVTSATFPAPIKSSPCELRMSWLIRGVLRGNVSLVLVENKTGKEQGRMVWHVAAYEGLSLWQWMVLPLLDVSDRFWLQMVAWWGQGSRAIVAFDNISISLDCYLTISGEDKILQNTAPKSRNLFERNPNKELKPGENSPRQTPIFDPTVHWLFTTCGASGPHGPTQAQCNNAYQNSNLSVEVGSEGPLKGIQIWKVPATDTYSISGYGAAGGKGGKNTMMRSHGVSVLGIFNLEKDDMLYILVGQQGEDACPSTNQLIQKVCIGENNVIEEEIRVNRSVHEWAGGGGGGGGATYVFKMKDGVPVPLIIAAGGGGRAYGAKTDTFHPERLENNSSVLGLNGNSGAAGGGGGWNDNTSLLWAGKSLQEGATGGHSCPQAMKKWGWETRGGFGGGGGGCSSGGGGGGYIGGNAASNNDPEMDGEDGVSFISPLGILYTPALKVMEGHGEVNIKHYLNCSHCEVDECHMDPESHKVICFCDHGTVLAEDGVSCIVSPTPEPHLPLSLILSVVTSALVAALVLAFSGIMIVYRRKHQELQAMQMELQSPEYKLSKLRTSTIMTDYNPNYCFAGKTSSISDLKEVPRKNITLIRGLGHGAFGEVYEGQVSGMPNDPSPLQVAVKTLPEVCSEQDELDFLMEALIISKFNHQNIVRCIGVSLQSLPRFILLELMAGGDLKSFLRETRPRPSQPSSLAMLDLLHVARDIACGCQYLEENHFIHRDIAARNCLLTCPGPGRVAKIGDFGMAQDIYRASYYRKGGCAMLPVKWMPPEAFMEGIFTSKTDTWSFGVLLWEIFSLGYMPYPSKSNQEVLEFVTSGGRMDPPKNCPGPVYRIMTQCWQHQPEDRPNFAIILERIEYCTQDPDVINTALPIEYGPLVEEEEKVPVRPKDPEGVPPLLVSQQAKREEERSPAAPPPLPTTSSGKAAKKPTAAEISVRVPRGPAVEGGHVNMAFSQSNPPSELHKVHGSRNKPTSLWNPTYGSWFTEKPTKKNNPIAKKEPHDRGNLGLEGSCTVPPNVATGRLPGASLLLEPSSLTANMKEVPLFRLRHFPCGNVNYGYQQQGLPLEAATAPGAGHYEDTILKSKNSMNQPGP

Q: How did the inhibition at 1 µM turn out when `CN(C(=O)CN1CCOCC1)c1ccc2sc3c(-c4cccc5c(=O)cc(N6CC7CCC(C6)O7)oc45)cccc3c2c1` [NU5455] was run?
A: Its inhibition at 1 µM is 2%.
